Several values for one entry are separate records, joined by “and”; a condition that tells them apart may be missing. Equal values may be shown once.
Key:
acute tendon injury = assay: Time until positive clinical response (disappearance of swelling, heat and pain on palpation) after medication institution; format: in vivo, horse; conditions: for Time until Clinical Response: acute tendon injury
Experimental: An acute tendon injury in a horse, is also known as a “Bowed Tendon”. This injury is clinically characterized by visible swelling of the tendon, heat to touch, as well as pain on palpation of the tendon. Clinical improvement of such a tendon injury is manifest by the diminution and ultimate absence of any swelling, heat and pain on palpation. The trials detailed above were carried out using the “polypaste” (multiple medications) approach to tendon injury in horses using “Tendon Guard Intense”. Three medications were used in initial tendon injury treatment: a proinflammatory cytokine inhibitor (Doxycycline 5 gm BD), an antioxidant or catechin (Green Tea extract/EGCG 5 gm BD) and an anti-inflammatory (Ibuprofen 5 gm BD). Throughout the testing process, a cohort of horses, were unable to take all of the individual ingredients planned, due to a number of reasons: The individual medication contraindications outlined, led to a cohort of horses in initial testing who consequently only received a single drug or a combination of two drugs (not three) to treat their acute tendon injury. These horses received either: All horses were carefully examined daily following acute injury and after institution of medication, by either an experienced veterinarian or trainer, for the presence of all of swelling, heat and pain on palpation of the tendon. A positive clinical response to treatment was defined as the absence of all three of swelling, heat and pain on palpation. The time from medication institution until disappearance of all three signs of swelling, heat and pain on palpation was recorded, as this was deemed the ultimate marker of clinical improvement of the tendon injury. Horses were immediately put back into light exercise once these acute signs had disappeared.

tendon injury = assay: Additional studies with alternative combinations: resolution of pain and swelling; format: in vivo, horse; conditions: dose of 450 mg/day
Experimental: Additional studies have been performed with alternative anti-inflammatories and alternative NSAIDs. It is desirable to avoid using ibuprofen. The reason is ibuprofen stores in tissue and causes positive drug tests in racing horses. Copper indomethacin (CuIndomethacin) has been used as the anti-inflammatory and/or NSAID.
One of the advantages of CuIndomethacin is that it can be used in lower dosages. A dose of 200 mg (⅕ gram) has been used. It is hypothesized that a therapeutic effect may be achieved with 50 mg or ¼ of the usual dose or less by way of example.
In some embodiments, it is desirable to avoid using Doxycycline. The reason for this is that there is a worldwide push not to use antibiotics for purposes which are not infection related. For this reason, in som embodiments, curcumin, which is also a proinflammatory cytokine inhibitor, has been used at a dose of 450 mg/day with great success.

In the case of `O=C(O[C@@H]1Cc2c(O)cc(O)cc2O[C@@H]1c1cc(O)c(O)c(O)c1)c1cc(O)c(O)c(O)c1` [EGCG, epigallocatechin gallate], the “Time until Clinical Response” value (acute tendon injury; individual horses (5), EGCG alone 5 gms BD) is reported as 24 days and 21 days (2×) and 28 days and 31 days and the “Mean time until a positive clinical response to treatment” value (acute tendon injury; mean of 5 horses, EGCG alone 5 gms BD) is reported as “(25 days)”.
For `C[C@H]1c2cccc(O)c2C(=O)C2=C(O)[C@]3(O)C(=O)C(C(N)=O)=C(O)[C@@H](N(C)C)[C@@H]3[C@@H](O)[C@@H]21` [Doxycycline], the “Time until Clinical Response” value (acute tendon injury; individual horses (6), Doxycycline alone 5 gms BD) was 27 days (2×) and 21 days (2×) and 24 days and 28 days and the “Mean time until a positive clinical response to treatment” value (acute tendon injury; mean of 6 horses, Doxycycline alone 5 gms BD) was “(24.66 days)”.
`CC(C)Cc1ccc(C(C)C(=O)O)cc1` (stereo not shown) [Ibuprofen] was tested, and the “Time until Clinical Response” value (acute tendon injury; individual horses (8), Ibuprofen alone 5 gm BD) was 20 days and 25 days and 19 days (2×) and 18 days and 23 days and 27 days and 24 days and the “Mean time until a positive clinical response to treatment” value (acute tendon injury; mean of 8 horses, Ibuprofen alone 5 gm BD) was “(21.9 days)”.
With `COc1cc(/C=C/C(=O)CC(=O)/C=C/c2ccc(O)c(OC)c2)ccc1O` [curcumin] the “Outcome of use as proinflammatory cytokine inhibitor in place of doxycycline” value (tendon injury) was “great success”.

— US11000533B2, “Connective tissue monitoring, compositions for connective tissue treatment and methods for treating connective tissue” (priority 2011, dated 2021)
